According to patent US4895956A, “3-aroyl-6,7-dihydro-5H-pyrrolo(1,2-c)imidazole-7-carboxylic acid derivatives” (Hisamitsu Pharmaceutical Co., Ltd., priority 1987, dated 1990):

What was measured:
[1] = system: gastric mucous; test: Gastric mucous damage test in rats; format: in vivo, rat (male rats of Wistar strain); details: oral, rats fasted 18 hours
Procedure: Gastric mucous damage test in rats
Using male rats of Wistar strain each weighing approximately 160 g, compounds of the present invention were orally administered to the rats previously fasting for 18 hours. Three point five hours later, 1 ml/rat of a 5% Pontamin Sky Blue solution was intravenously injected to the rats. Rats were dissected to remove the stomachs therefrom. A 10 ml of 70% ethanol was injected into the stomachs to fix them, and the stomachs were cut and washed with a 10% hydrogen peroxide/ethanol mixed liquid and then visually observed to fine whether ulcers were formed therein.

[2] = system: writhing induced by acetic acid; test: Inhibitory actions on the writhing induced by acetic acid in mice; format: in vivo, mouse (male ddY strain mice); details: 50 mg/kg, oral, 30 min before 0.6% acetic acid; writhing counted for 10 min, 5 min after acetic acid; vs control group
Procedure: Inhibitory actions on the writhing induced by acetic acid in mice
Male ddY strain mice weighing 20-24 g were used a group consisting 7-9 animals. Each compound was orally administered to mice. Thirty minutes later, 0.6% acetic acid was abdominally administered at a dose of 0.1 ml/10 g. The number of writhing was counted 5 minutes after the administration of the acetic acid for 10 minutes. The inhibitory percentage were determined by comparing the number of writhing to the control group.

[3] = Acute toxicity test in mice; details: in vivo; male mouse, oral, 14 days observation
Source text: (§1) Acute toxicity test in rats and mice
(§2) Each group consisting 8 animals such as male Wistar rats weighing about 120 g and male ddY mice weighing about 25 g was used. Compounds of the present invention were orally administered to the animals. General symptoms, changes in body weight and lethality of the test animals had been observed over a period of time for 14 days after the oral administration.

[4] = Acute toxicity test in rats; details: in vivo; male rat, oral, 14 days observation
Source text: as §1, §2

[5] = system: carrageenin-induced paw edema; test: Inhibitory actions on carrageenin-induced paw edema; format: in vivo, rat (male rats of Wistar strain); details: 50 mg/kg, oral, 60 min before 1% λ-carrageenin; 3 hours after induction; vs control group
Procedure: Inhibitory actions on carrageenin-induced paw edema
Using male rats of Wistar strain each weighing approximately 150 g, 0.1 ml of 1% λ-carrageenin was subcutaneously injected into the paw of each rat to induce the reaction. Since then, the volume of paw edema was measured in time course. Each compound of the present invention was orally administered to the rats 60 minutes before the induction of the reaction. As shown in the following Table, the results were expressed in terms of inhibitory percentage in comparison with those in control group at 3 hours after the induction of the reaction.

Structure (SMILES)	Ulcer formation ([1]; 10 mg/kg)	Inhibition (inhibitory percentage of writhing) [2]	LD50 at 336 h [3]	LD50 at 336 h [4]	Ulcer formation ([1]; 100 mg/kg)	Inhibition (inhibitory percentage of paw edema) [5]
COc1ccc2c(c1)c(CC(=O)O)c(C)n2C(=O)c1ccc(Cl)cc1 [Indomethacine, reference compound]	6/6	–	–	–	–	–
CC(C)c1ccc(C(=O)c2ncc3n2CCC3C(=O)O)cc1 (stereo not drawn) [Compound of Example 24]	–	79.3%	> 3000 mg/kg	> 5000 mg/kg	0/6	51.6%
O=C(c1ccccc1Cl)c1nc(Br)c2n1CCC2C(=O)O (stereo not drawn) [Compound of Example 9]	–	83.3%	> 3000 mg/kg	> 5000 mg/kg	0/6	50.1%
O=C(c1ccc(Cl)cc1)c1nc(Br)c2n1CCC2C(=O)O (stereo not drawn) [Compound of Example 16]	–	84.5%	> 3000 mg/kg	> 5000 mg/kg	0/6	50.7%
CC(=O)Oc1ccccc1C(=O)O [Aspirin, reference compound]	–	–	–	–	6/6	–
COc1ccc(C(=O)c2ncc3n2CCC3C(=O)O)cc1 (stereo not drawn) [Compound of Example 15]	–	86.3%	> 3000 mg/kg	> 5000 mg/kg	0/6	53.9%
O=C(c1ccccc1)c1nc(Br)c2n1CCC2C(=O)O (stereo not drawn) [Compound of Example 5, 3-benzoyl-1-bromo-6,7-dihydro-5H-pyrrolo[1,2-c]imidazole-7-carboxylic acid]	–	87.5%	> 3000 mg/kg	> 5000 mg/kg	0/6	48.4%
